From patent US5888504A, “Natural composition for combatting fungi” (Van den Bergh Foods Co., Division of Conopco, Inc., priority 1995, dated 1999)
“Also recorded” adds a separate entry of the source.

How the values were obtained:
Format in all cases: cell-based
Penicillium roqueforti = experiment: Outgrowth of Penicillium roqueforti inoculated on processed cheese; conditions: nisin 0.05 wt. % or NovoZyme 234 2 wt. % singly
Description: The surface of processed cheese was inoculated in the centre with Penicillium roqueforti. Admixture of nisin of the lytic enzymes was done in a laminar air flow cabinet. The samples were observed during 16 days (see FIG. 7).
Fungal growth is expressed as the diameter of the colonies. When NovoZyme™ 234 (2 wt. %) was present fungal outgrowth was considerably delayed and became visible only after 12 days.

Aspergillus niger = experiment: Outgrowth of Aspergillus niger spores in malt extract broth/agar, microtitre plate, OD 620 nm; conditions: no enzyme
Description: An aqueous solution (demineralised water) was prepared containing 0.2 wt. % of the antifungal substance NovoZyme™ 234 and 0.002 wt. % of nisin. 75 μl of the solution were warmed to 20° C. and added to the well of a microtitre plate. Then 75 μl of a solution containing 4 wt. % of malt extract broth (ex Oxoid), 0.75 wt. % of agar (ex Difco) and 1000 spores of the fungus Aspergillus niger was heated to 25° C. and added to the test solution in the well (pH 5.1).
The procedure was repeated with solutions containing 0.004, 0.008, 0.016, 0.032 and 0.064 wt. % of nisin. The contents of the wells were thoroughly mixed and 75 μl of paraffin oil was loaded on top of the mixture. Finally, the plates were sealed with an oxygen permeable foil (Merlin).
During 360 hours the OD 620 nm was measured at regular intervals using a Multiscan devise MCC 340. Fungal outgrowth was defined when an OD (optical density) increase of at least 0.1 occurred.
[…] 75 μl of the solution were warmed to 20° C. and added to the well of a microtitre plate. Then 75 μl of a solution containing 4 wt. % malt extract broth (ex Oxoid), 0.75 wt. % agar (ex Difco) and 1000 spores of the fungus Aspergillus niger was heated to 25° C. and added to the test solution in the well (pH 5.1). […] During 360 hours the OD 620 nm was measured at regular intervals using a Multiscan devise MCC 340. […]

Paecilomyces variotii [1] = experiment: Outgrowth of Paecilomyces variotii spores, microtitre plate (Example 2 repeated); conditions: histatin without enzyme
Description: An aqueous solution (demineralised water) was prepared containing 0.2 wt. % of the antifungal substance NovoZyme™ 234 and 0.002 wt. % of histatin. 75 μl of the solution were warmed to 20° C. and added to the well of a microtitre plate. Then 75 μl of a solution containing 4 wt. % malt extract broth (ex Oxoid), 0.75 wt. % agar (ex Difco) and 1000 spores of the fungus Aspergillus niger was heated to 25° C. and added to the test solution in the well (pH 5.1). The procedure was repeated with solutions containing 0.004, 0.008, 0.016, 0.032 and 0.064 wt. % of histatin. The contents of the wells were thoroughly mixed and 75 μl of paraffin oil was loaded on top of the mixture. Finally, the plates were sealed with an oxygen permeable foil (Merlin). During 360 hours the OD 620 nm was measured at regular intervals using a Multiscan devise MCC 340. Fungal outgrowth was defined when an OD increase of at least 0.1 occurred.
Example 2 is repeated with the fungus Paecilomyces variotii.

Paecilomyces variotii [2] = experiment: Extent of outgrowth of Paecilomyces variotii in malt extract broth in serum bottles; conditions: 1 μM carvacrol, absence of enzyme; observed during ten days
Description: Solutions (30 ml) were prepared containing […] dissolved in malt extract broth. Novozyme™234 was present in concentrations of 1, 0.1 and 0 mg/ml. For comparison a solution was prepared containing 1 mg/ml of Novozyme™, but without carvacrol and one in which both enzyme and carvacrol were absent. 50 ml serum bottles filled with the solutions were inoculated with 1000 spores of Paecilomyces variotii. The height of the bars of FIG. 5 indicates the extent of outgrowth of the fungi observed during ten days. The highest bars ("100") indicate full outgrowth of the fungi, which occurs in solutions without carvacrol and with 1 mg/ml or less enzyme. Observed growth inhibition is expressed by the "50" bars. The presence of 1 μM carvacrol causes inhibition of growth, even in the absence of enzyme. When 1 mg/ml of enzyme is present together with 1 μM of carvacrol even germination of the fungal spores ("25" bars) does no longer occurs.

With nisin the “time after which fungal outgrowth showed” value (Penicillium roqueforti) was 4 days and the “effect on postponing the onset of fungal growth (time needed for outgrowth)” value (Aspergillus niger; nisin 0 to 0.032 wt. %, pH 5.1, followed 360 hours) was “no fungal growth inhibition has been observed; also recorded: no substantial effect”.
With histatin the “concentration at which fungal growth inhibition is shown” value (Paecilomyces variotii [1]) was ≥ 0.004 wt. % and the “retarding fungal growth (time needed for outgrowth)” value (Aspergillus niger; histatin 0 to 0.032 wt. %, particularly at 0.008 wt. % and higher) was “slightly active in retarding fungal growth”.
Cc1ccc(C(C)C)cc1O [carvacrol] was tested, and the “extent of outgrowth (height of bar)” value (Paecilomyces variotii [2]) was 50.
